1 compound from patent US7122340B2, “Regulatory T cells; methods” (Schering Corporation, priority 2000, dated 2006) can be followed below.

This test relates to naive T cells (CD4+CD62L+). Put plainly: Differentiation of naive CD4+ T cells stimulated with antigen and antigen presenting cells; cytokine profile after restimulation (FACS, secreted cytokines). Type of test: cell-based, mouse. To be noted: antigen and APC culture of DO11.10 CD4+ T cells.

Method: IL-2 is present in the culture after the first 3 days of activation. VitD3 is used at 4×10^-8 M (preferably in the range 4×10^-9 M to 4×10^-7 M) while DEX is used at 10^-8M (preferably in the range of 10^-9 M to 10^-7 M).
The cytokine profiles produced by the cells after restimulation are evaluated after 6 h by FACS analysis, while the quantities are accumulated by the respective cell population in 1 ml for 48 h.
DO.11.10 mice transgenic for an ovalbumin323-339 specific αβTCR were used as a source of antigen specific T cells. […] They were backcrossed on to a BALB/C background and (DO11.10×BALB/C)F1 mice were used as the source of T cells in all experiments. BALB/C (Taconics, Germantown, N.Y.) mice were used to provide splenic antigen presenting cells (APC).
Briefly, immunomagnetic depletion of CD8α^+, B220^+, and Mac-1^+ splenocytes was performed using goat anti-rat Ig coated beads (Biomag, PerSeptive Biosystems, Framingham, Mass.). The depleted population was then stained with anti-CD4-FITC and anti-L-selectin-PE and CD4^+ L-selectin^high cells were sorted using a FACStar^Plus cell sorter (Becton-Dickinson, Mountain View, Calif.). […] After 6 days, T cells were harvested, counted, and restimulated at 2.5×10^4 per well in 200 μl in 96 well plates for phenotype analysis by cytokine secretion. […]

With `C=C1/C(=C\C=C2/CCC[C@]3(C)[C@@H]([C@H](C)CCCC(C)(C)O)CC[C@@H]23)C[C@@H](O)C[C@@H]1O` [VitD3, 1,25(OH)-Dihydroxyvitamin D3], the “Resulting T cell population / cytokine profile (in words)” value is “drive the development of Th2 cells producing high levels of IL-4 and IL-5 and reduced IFN-γ”.
